From US20180066327A1, “Methods to Accelerate Wound Healing in Diabetic Subjects” (Joslin Diabetes Center, Inc., priority 2015, published 2018) come the findings set out here.

What all share (assay type): cell-based, human
In assay [1] the test system is Medalist fibroblasts. Nature of the assay: VEGF protein secreted to the medium (ELISA). An excerpt:
Skin were obtained from 26 Medalists with various complications and from 7 age-matched non-diabetic controls during post-mortem period. Primary fibroblast cultures were derived from human skin samples, sustained in DMEM (10-027, Cellgro Inc.) supplemented with 10% heat inactivated fetal bovine serum, over a period of 4 weeks, in a 6-well plate, with media supplementation every other day. Subsequently, as fibroblasts emerged from the primary explant, a brief trypsinization (0.25% Trypsin) was used to separate and further expand the cells in a 10 cm^2 plate. In all experiments fibroblasts were used between passages 2-5.
(§1) Fibroblasts with passage≦5 were grown and expanded in 10 cm plate with DMEM supplemented with 10% FBS. Cells were stimulated with the conditions and compounds as indicated after overnight starvation in DMEM with 0.1% BSA without FBS. Cells were lysed and protein amounts were measured with BCA kit (Bio-Rad, Hercules, Calif.). Protein lysates (20-30 μg) were separated by SDS-PAGE, transferred, blocked and detected as we described before (Park et al., Mol Cell Biol. 2013 August; 33(16):3227-41). The signal intensity was quantified using ImageJ software (SynGene, Frederick, Md.). For immune precipitation, tissue lysates were incubated with the appropriate antibodies followed by the addition of protein A/G Sepharose beads (Santa Cruz Biotechnology, Inc., Santa Cruz, Calif.). The precipitated proteins were subjected to SDS-PAGE followed by immunoblotting with the appropriate antibodies as described before (Park et al., Mol Cell Biol. 2013 August; 33(16):3227-41).
The transfection of siRNA was performed using the Ambion Silencer Select Validated siRNA kit for primary cells (Ambion by Life Technology, Carlsband, Calif.), in 60-70% confluent fibroblast. For evaluating insulin's effect on VEGF production, cells were washed twice with PBS, and starved overnight with DMEM containing 1% BSA. Insulin (100 nM) was added to each for additional 16 h. After incubation, media were collected for VEGF measurement by ELISA and the cell lysate were collected for measuring protein concentration.
Protein levels of VEGF in the medium were measured using Quantikine R&D System kit (Minneapolis, Minn.). This kit determines mainly VEGF165. Glycated hemoglobin (HbA1c) was determined by HPLC (Tosoh G7 and 2.2, Tokyo, Japan). Serum creatinine was determined by spectrophotometry. Urine albumin and creatinine were determined by turbidimetric methods. Serum C-peptide was determined by RIA (Beckman Coulter, Inc, Fullerton, Calif.).
(In general: An ELISA detects its analyte on a solid surface through an enzyme-linked reagent.)

Assay [2] concerns Medalist fibroblasts. Kind of assay: VEGF protein secreted to the medium (ELISA). To be noted: fibroblasts from Medalists compared to controls; 10 ng/ml TGF for 24 hours.
In assay [3] the test system is control fibroblasts. Kind of assay: VEGF protein secreted to the medium (ELISA).
The test system of assay [4] is Medalist fibroblasts. Nature of the assay: VEGF mRNA by real-time PCR. As to conditions: fibroblasts from Medalists, 100 nM insulin. The procedure: (§2) Real-time PCR was performed to evaluate mRNA expressions of VEGF, PDGF-B, Fibronectin, and PKCδ in cultured fibroblast and mice granulation tissue as we described before (Geraldes et al., Nat Med. 2009 November; 15(11):1298-306). PCR primers and probes are detailed in Table A. Human 36B4 or 18S ribosomal RNA expressions as indicated were used for normalization.
(In general: Quantitative PCR measures a nucleic acid by following its amplification.)

For assay [5], the system named is control fibroblasts. Nature of the assay: VEGF mRNA by real-time PCR. As to conditions: fibroblasts from controls, 100 nM insulin. The procedure:
as §2

Assay [6] relates to Medalist fibroblasts. Nature of the assay: Scratch wound migration assay. To be noted: 10 ng/ml PDGF-BB or 100 nM insulin for 12 h. The procedure:
(§3) Scratch wound migration assay—100% Confluent starved Medalist or control fibroblasts wounded, followed by incubation with 10 ng/ml PDGF-BB or 100 nM insulin for 12 hours. Phase contrast images of wounded areas were taken at time 0, 4, 6, 8 and 12 hours after stimulation, and migration was determined as described before (Ito et al., Am J Physiol Lung Cell Mol Physiol. 2014 Jul. 1; 307(1):L94-105).

Assay [7] deals with control fibroblasts. Kind of assay: Scratch wound migration assay. To be noted: 10 ng/ml PDGF-BB or 100 nM insulin for 12 h. Here is the method: as §3
Assay [8] deals with Medalist fibroblasts. Nature of the assay: p-AKT (Ser473) immunoblot. As to conditions: for p-AKT increase compared to untreated cells: Medalist fibroblasts, 100 nM insulin or 10 ng/ml PDGF-BB for 10 minutes; for p-AKT increase: 100 nM insulin 10 minutes. The procedure:
as §1
A general note: Immunoblotting shows a protein as a band on a membrane.

In assay [9] the test system is control fibroblasts. Nature of the assay: p-AKT (Ser473) immunoblot. To be noted: for p-AKT increase compared to untreated cells: 100 nM insulin or 10 ng/ml PDGF-BB for 10 minutes. The procedure: as §1
For assay [10], the system named is Medalist fibroblasts. Kind of assay: IRS1 tyrosine phosphorylation immunoblot. As to conditions: 100 nM insulin. The procedure: as §1
The test system of assay [11] is control fibroblasts. Kind of assay: IRS1 tyrosine phosphorylation immunoblot. To be noted: fibroblasts of controls, 100 nM insulin. Here is the method:
as §1

The test system of assay [12] is Medalist fibroblasts. Kind of assay: p-Tyr of insulin receptor beta subunit immunoblot. To be noted: 100 nM insulin. Here is the method:
as §1

The subject of assay [13] is control fibroblasts. Kind of assay: p-Tyr of insulin receptor beta subunit immunoblot. As to conditions: controls, 100 nM insulin. The procedure:
as §1

[14] abbreviates: fibroblasts of Medalists with CVD.
[15] abbreviates: fibroblasts of Medalists without CVD.

Turning to `CN(C)CCCn1cc(C2=C(c3c[nH]c4ccccc34)C(=O)NC2=O)c2ccccc21` [GFX, 2[1-(3-dimethylaminopropyl)-1H-indol-3-yl]-3-(1H-indol-3-yl)-maleimide], the “fold increase in VEGF levels above basal” value in the assay on Medalist fibroblasts [1] (Medalist fibroblasts, inhibitor + 100 nM insulin (10 mM GFX or 3 uM rottlerin)) is listed as 4.74±0.94 fold; in the assay on Medalist fibroblasts [1] (Medalist fibroblasts, inhibitor alone, no insulin (10 mM GFX or 3 uM rottlerin)), 2.55±0.43 fold.

On to `COc1cccc(-c2cc(=O)c3ccccc3o2)c1N` [PD98059], for which, in the assay on Medalist fibroblasts [1] (Medalist fibroblasts, 100 nM insulin in presence of 100 nM wortmanin or 10 μM PD98059), the “insulin-stimulated VEGF production” value is “but not PD98059, significantly inhibited”.

As for `CN(C)C[C@@H]1CCn2cc(c3ccccc32)C2=C(C(=O)NC2=O)c2cn(c3ccccc23)CCO1` [RBX, Ruboxistaurin], the “insulin stimulated VEGF secretion” value in the assay with Medalist fibroblasts [1] (Medalist fibroblasts, 100 nM insulin with 100 nM RBX) is listed as “failed to increase”.

As for `CC(=O)c1c(O)c(C)c(O)c(Cc2c(O)c3c(c(C(=O)/C=C/c4ccccc4)c2O)OC(C)(C)C=C3)c1O` [rottlerin, Rottlerin], the “fold increase in VEGF levels above basal” value in the assay on Medalist fibroblasts [1] (Medalist fibroblasts, inhibitor + 100 nM insulin (GFX or 3 uM rottlerin)) was 5.25±0.56 fold; with Medalist fibroblasts [1] (Medalist fibroblasts, inhibitor alone, no insulin (GFX or 3 uM rottlerin)), 3.74±0.49 fold.

Regarding TGF-β, the “VEGF induced by TGF-β” value in the assay on Medalist fibroblasts [2] is on record as “blunted”.

insulin: the “VEGF secretion, fold increase” value in the assay with Medalist fibroblasts [1] (Ad-GFP infected Medalist fibroblasts, with 100 nM insulin 16 hours) stood at 1.51±0.18 fold. In the assay on Medalist fibroblasts [1] (Medalist fibroblasts, insulin alone, siRNA experiment), the “VEGF secretion, fold increase above basal” value stood at 1.28±0.10 fold. Besides, the “fold increase in VEGF levels above basal” value with Medalist fibroblasts [1] (Medalist fibroblasts, 100 nM insulin alone, GFX experiment) stood at 1.59±0.10 fold; in the assay with Medalist fibroblasts [1] (Medalist fibroblasts, 100 nM insulin alone, rottlerin experiment) it was 1.50±0.31 fold. The “VEGF protein levels after insulin stimulation” value stood at 106.0±12.0 pg/mg protein in the assay with Medalist fibroblasts [1] (Medalists with CVD (basal 75.5±13.7)) and 99.1±8.4 pg/mg protein with Medalist fibroblasts [1] (Medalists without CVD (basal 57.5±8.5)). The “stimulation of VEGF protein” value in the assay on Medalist fibroblasts [1] (fibroblasts from Medalists, 100 nM insulin) is listed as “failed to significantly stimulate”. The “VEGF production, fold” value in the assay with control fibroblasts [3] (Ad-GFP infected control fibroblasts, with 100 nM insulin 16 hours) was found to be 2.89±0.67 fold. Also, the “increase in VEGF protein levels” value with control fibroblasts [3] (fibroblasts from controls, 100 nM insulin) was determined as 66%. The “stimulation of VEGF mRNA production” value in the assay on Medalist fibroblasts [4] is given as “failed to significantly stimulate”. Moreover, the “increase in VEGF mRNA” value with control fibroblasts [5] was 2.4 fold. Moreover, the cell migration result is on record as “failed to significantly increase” in the assay with Medalist fibroblasts [6] and 1.7 fold in the assay on control fibroblasts [7]. In addition, the “p-AKT increase compared to untreated cells” value in the assay on Medalist fibroblasts [8] stood at 2 fold; in the assay with control fibroblasts [9] it was 3.6 fold. The p-AKT increase with Medalist fibroblasts [8] (setting [14]) was 1.8 fold; with Medalist fibroblasts [8] (setting [15]), 2.4 fold; in the assay with control fibroblasts [9] (100 nM insulin 10 minutes (CVD comparison experiment)), 4.0 fold. Further, the “IRS1 tyrosine phosphorylation at site 649 (p-Tyr649), increase” value in the assay on Medalist fibroblasts [10] (setting [14]) is reported as 34%; in the assay with Medalist fibroblasts [10] (setting [15]), 63%; with control fibroblasts [11], 53%. The figures for the “IRS1 tyrosine phosphorylation at site 911 (p-Tyr911), increase” value with Medalist fibroblasts [10] (setting [14]), in the assay with Medalist fibroblasts [10] (setting [15]) and in the assay on control fibroblasts [11] were 26%, 40% and 52%, respectively. The “p-Tyr of the insulin receptor beta subunit, increase” value is reported as 4.7 fold in the assay with Medalist fibroblasts [12] (Medalists with CVD), 4.9 fold with Medalist fibroblasts [12] (Medalists without CVD) and 5.2 fold in the assay on control fibroblasts [13].

B1: PDGF-BB: platelet-derived growth factor, 10 ng/ml stimulus (protein, UniProt P01127 82-190, looked up)
Platelet-derived growth …: SLGSLTIAEPAMIAECKTRTEVFEISRRLIDRTNANFLVWPPCVEVQRCSGCCNNRNVQCRPTQVQLRPVQVRKIEIVRKKPIFKKATVTLEDHLACKCETVAAARPVT
modifications: homodimer BB
notes: platelet-derived growth factor, 10 ng/ml stimulus
On to B1, for which the cell migration entry with Medalist fibroblasts [6] and with control fibroblasts [7] was “increased cell migration significantly” each time. Also, the “p-AKT increase compared to untreated cells” value with Medalist fibroblasts [8] and in the assay with control fibroblasts [9] was 7 fold each time.
